Assay results taken from US20260317324A1, “BIFUNCTIONAL COMPOUNDS FOR DEGRADING BRAF VIA UBIQUITIN PROTEOSOME PATHWAY” (Nurix Therapeutics, Inc., priority 2023, published 2026).

Tests used:
Format in all cases: cell-based
BRAF G469A = biological target: T1, BRAF G469A (Homo sapiens, UniProt P15056, G469A); test: BRAF HiBiT degradation assay, C-terminal HiBiT-tagged BRAF G469A overexpressed in HCT-116 BRAF−/− cells (clone 34), Nano-Glo HiBiT Lytic assay
T1 construct: Horizon Discovery (HCT-116 BRAF−/− cells); host or cells: HCT-116 BRAF−/− cells, clone 34, lentiviral transduction
T1 sequence (P15056 whole entry G469A): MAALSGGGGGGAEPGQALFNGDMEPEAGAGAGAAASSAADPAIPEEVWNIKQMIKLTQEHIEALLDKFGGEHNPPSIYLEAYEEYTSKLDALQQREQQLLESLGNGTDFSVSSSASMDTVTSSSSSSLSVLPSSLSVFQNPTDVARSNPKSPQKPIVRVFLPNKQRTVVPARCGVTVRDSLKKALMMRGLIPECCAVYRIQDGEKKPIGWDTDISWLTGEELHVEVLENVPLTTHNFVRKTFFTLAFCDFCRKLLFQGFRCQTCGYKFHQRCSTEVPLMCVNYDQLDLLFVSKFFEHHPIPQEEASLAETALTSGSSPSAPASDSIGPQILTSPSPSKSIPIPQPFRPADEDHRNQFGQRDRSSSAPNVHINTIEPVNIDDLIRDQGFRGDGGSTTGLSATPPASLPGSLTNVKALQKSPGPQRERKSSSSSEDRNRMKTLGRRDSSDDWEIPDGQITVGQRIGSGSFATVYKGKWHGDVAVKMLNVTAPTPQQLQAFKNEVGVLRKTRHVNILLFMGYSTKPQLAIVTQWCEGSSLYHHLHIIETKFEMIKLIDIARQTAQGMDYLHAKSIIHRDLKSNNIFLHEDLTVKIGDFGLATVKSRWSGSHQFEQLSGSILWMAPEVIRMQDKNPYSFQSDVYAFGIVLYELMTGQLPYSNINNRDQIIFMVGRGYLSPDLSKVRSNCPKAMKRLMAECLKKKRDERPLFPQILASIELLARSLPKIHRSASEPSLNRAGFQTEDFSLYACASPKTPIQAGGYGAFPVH
How it was run: (§1)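 Cells 3,000/well, 24 h at 37 °C; cpds 1 μM–0.01 nM, 11-pt half-log, duplicate, 0.2% DMSO. Readout: HiBiT lytic luminescence, 10 min at RT. Normalized to DMSO-treated tagged cells, with DMSO-treated wild-type HCT-116 as background. DC50 = fitted concentration at Y=50; Obs. Dmax = % degraded at maximal effect.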

BRAF D594G = biological target: T2, BRAF D594G (Homo sapiens, UniProt P15056, D594G); test: BRAF HiBiT degradation assay, C-terminal HiBiT-tagged BRAF D594G overexpressed in HCT-116 BRAF−/− cells (clone 63), Nano-Glo HiBiT Lytic assay
T2 construct: Horizon Discovery (HCT-116 BRAF−/− cells); host or cells: HCT-116 BRAF−/− cells, clone 63, lentiviral transduction
T2 sequence (P15056 whole entry D594G): as the sequence (P15056 whole entry G469A) above, with A469G, D594G counted along it
How it was run: as §1

BRAF V600E = biological target: T3, BRAF V600E (Homo sapiens, UniProt P15056, V600E); test: BRAF HiBiT degradation assay, C-terminal HiBiT-tagged BRAF V600E A375 cells (clone 1F10), Nano-Glo HiBiT Lytic assay; details: for Dmax: A-375
T3 construct: endogenous C-terminal HiBiT fusion tag on BRAF V600E allele; endogenous in cells; host or cells: A375 clone 1F10 (CRISPR-Cas9 knock-in of the HiBiT tag; parental A375 from ATCC)
T3 sequence (P15056 whole entry V600E, the tested form may be a part): as the sequence (P15056 whole entry G469A) above, with A469G, V600E counted along it
How it was run: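 Luminescence read-out: Nano-Glo HiBiT lytic reagent with LgBiT, 10 min at room temperature. Signal normalised to DMSO-treated tagged cells, with wildtype A375 as background. Cells are endogenously tagged BRAF V600E A375 clone 1F10. Compounds were tested from 1 μM to 0.01 nM; Dmax is observed % degraded at maximal effect.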

BRAF G466V = biological target: T4, BRAF G466V (Homo sapiens, UniProt P15056, G466V); test: BRAF HiBiT degradation assay, C-terminal HiBiT-tagged BRAF G466V overexpressed in HCT-116 BRAF−/− cells (clone 8), Nano-Glo HiBiT Lytic assay
T4 construct: Horizon Discovery (HCT-116 BRAF−/− cells); host or cells: HCT-116 BRAF−/− cells, clone 8, lentiviral transduction
T4 sequence (P15056 whole entry G466V): as the sequence (P15056 whole entry G469A) above, with G466V, A469G counted along it
How it was run: as §1

[1] = Class 2, BRAF G469A, DC50 at 50%: fitted conc. at Y=50
[2] = HCT-116, Class 2, BRAF G469A, percentage protein degraded at maximal compound effect relative to DMSO
[3] = BRAF D594G, DC50 at 50%: fitted conc. at Y=50
[4] = HCT-116, BRAF D594G, percentage protein degraded at maximal compound effect relative to DMSO
[5] = A375 (BRAF V600E), DC50 at 50%: fitted conc. at Y=50
[6] = A375 (BRAF V600E), percentage protein degraded at maximal compound effect relative to DMSO
[7] = BRAF G466V, DC50 at 50%: fitted conc. at Y=50
[8] = HCT-116, BRAF G466V, percentage protein degraded at maximal compound effect relative to DMSO
[9] = BRAF G469A (Class 2), HCT-116 BRAF−/− cells, DC50 at 50% degradation
[10] = BRAF G469A (Class 2), HCT-116 BRAF−/− cells, observed Dmax relative to DMSO control
[11] = BRAF D594G (Class 3), HCT-116 BRAF−/− cells, DC50 at 50% degradation
[12] = BRAF D594G (Class 3), HCT-116 BRAF−/− cells, observed Dmax relative to DMSO control
[13] = A375 (BRAF V600E, Class 1), DC50 at 50% degradation
[14] = A375 (BRAF V600E, Class 1), observed Dmax, % protein degraded relative to DMSO control
[15] = BRAF G466V (Class 3), HCT-116 BRAF−/− cells, DC50 at 50% degradation
[16] = BRAF G466V (Class 3), HCT-116 BRAF−/− cells, observed Dmax relative to DMSO control

DC50 (BRAF G469A; [1]) [nM] | Dmax (BRAF G469A; [2]) [%] | DC50 (BRAF D594G; [3]) [nM] | Dmax (BRAF D594G; [4]) [%] | DC50 (BRAF V600E; [5]) [nM] | Dmax (BRAF V600E; [6]) [%] | DC50 (BRAF G466V; [7]) [nM] | Dmax (BRAF G466V; [8]) [%] | DC50 (BRAF G469A; [9]) [nM] | Dmax (BRAF G469A; [10]) [%] | DC50 (BRAF D594G; [11]) [nM] | Dmax (BRAF D594G; [12]) [%] | DC50 (BRAF V600E; [13]) [nM] | Dmax (BRAF V600E; [14]) [%] | DC50 (BRAF G466V; [15]) [nM] | Dmax (BRAF G466V; [16]) [%] | SMILES
> 500 | 30 to 70 | < 10 | > 70 | < 10 | > 70 | < 10 | > 70 | – | – | – | – | – | – | – | – | CCCS(=O)(=O)Nc1cccc(-c2nc(C3CCN(C(=O)C4(C)CCN(C(=O)C5CCN(c6ccc(C7CCC(=O)NC7=O)cn6)CC5)CC4)CC3)sc2-c2ccncn2)c1F (racemic) [Compound 181, Rac-N-[3-(2-{1-[1-(1-{5-[(3R)-2,6-dioxopiperidin-3-yl]pyridin-2-yl}piperidine-4-carbonyl)-4-methylpiperidine-4-carbonyl]piperidin-4-yl}-5-(pyrimidin-4-yl)-1,3-thiazol-4-yl)-2-fluorophenyl]propane-1-sulfonamide]
> 500 | < 30 | > 500 | 30 to 70 | < 10 | > 70 | > 500 | 30 to 70 | – | – | – | – | – | – | – | – | CCCS(=O)(=O)Nc1cccc(-c2nc(C3CCN(C(=O)C4(C)CCN(C(=O)CC5CCN(c6ccc(C7CCC(=O)NC7=O)cn6)CC5)CC4)CC3)sc2-c2ccnc(N)n2)c1F (racemic) [Compound 194, Rac-N-{3-[5-(2-aminopyrimidin-4-yl)-2-(1-{1-[2-(1-{5-[(3R)-2,6-dioxopiperidin-3-yl]pyridin-2-yl}piperidin-4-yl)acetyl]-4-methylpiperidine-4-carbonyl}piperidin-4-yl)-1,3-thiazol-4-yl]-2-fluorophenyl}propane-1-sulfonamide]
– | – | – | – | – | – | – | – | > 500 | 30 to 70 | 10 to 50 | 30 to 70 | 50 to 500 | > 70 | 50 to 500 | 30 to 70 | CCN(C)S(=O)(=O)Nc1cccc(-c2cn(-c3ccc(N4CCN(CC5CCN(c6ccc([C@@H]7CCC(=O)NC7=O)cn6)CC5)CC4)c(F)c3)nc2-c2ccncc2)c1F [Compound 380, (3S)-3-(6-{4-[(4-{4-[4-(3-{[ethyl(methyl)sulfamoyl]amino}-2-fluorophenyl)-3-(pyridin-4-yl)-1H-pyrazol-1-yl]-2-fluorophenyl}piperazin-1-yl)methyl]piperidin-1-yl}pyridin-3-yl)piperidine-2,6-dione]
– | – | – | – | – | – | – | – | 10 to 50 | > 70 | < 10 | > 70 | < 10 | > 70 | < 10 | > 70 | O=C1CCC(c2ccc(N3CCC(CN4CCN(c5ccc(-n6cc(-c7cc(F)cc(NS(=O)(=O)N8CCCC8)c7F)c(-c7ccncc7)n6)cc5)CC4)CC3)nc2)C(=O)N1 (racemic) [Compound 267, Rac-(R)—N-(3-(1-(4-(4-((1-(5-(2,6-dioxopiperidin-3-yl)pyridin-2-yl)piperidin-4-yl)methyl)piperazin-1-yl)phenyl)-3-(pyridin-4-yl)-1H-pyrazol-4-yl)-2,5-difluorophenyl)pyrrolidine-1-sulfonamide]
> 500 | < 30 | > 500 | < 30 | 10 to 50 | 30 to 70 | > 500 | < 30 | – | – | – | – | – | – | – | – | CCCS(=O)(=O)Nc1cccc(-c2nc(C(C)(C)C)sc2-c2ccnc(Nc3ccc(C4CCN(C(=O)C[C@H]5CCN(c6ccc(C7CCC(=O)NC7=O)cc6)C5)CC4)cc3)n2)c1F (mixture of isomers) [Compound 165, N-{3-[2-tert-butyl-5-(2-{[4-(1-{2-[(3R)-1-{4-[(3RS)-2,6-dioxopiperidin-3-yl]phenyl}pyrrolidin-3-yl]acetyl}piperidin-4-yl)phenyl]amino}pyrimidin-4-yl)-1,3-thiazol-4-yl]-2-fluorophenyl}propane-1-sulfonamide]
– | – | – | – | – | – | – | – | < 10 | > 70 | < 10 | > 70 | < 10 | > 70 | < 10 | > 70 | O=C1CC[C@H](c2ccc(N3CCC(CN4CCN(c5ccc(-n6cc(-c7cc(Cl)cc(NS(=O)(=O)N8CC[C@@H](F)C8)c7F)c(-c7ccncc7)n6)cc5F)CC4)CC3)cc2)C(=O)N1 [Compound 367, (3R)—N-{5-chloro-3-[1-(4-{4-[(1-{4-[(3R)-2,6-dioxopiperidin-3-yl]phenyl}piperidin-4-yl)methyl]piperazin-1-yl}-3-fluorophenyl)-3-(pyridin-4-yl)-1H-pyrazol-4-yl]-2-fluorophenyl}-3-fluoropyrrolidine-1-sulfonamide]
> 500 | < 30 | > 500 | 30 to 70 | 10 to 50 | 30 to 70 | > 500 | < 30 | – | – | – | – | – | – | – | – | CCCS(=O)(=O)Nc1cccc(-c2nc(C(C)(C)C)sc2-c2ccnc(NC3CC4(C3)CN(C(=O)CN3CCC5(CC3)CN(c3ccc6c(c3)C(=O)N(C3CCC(=O)NC3=O)C6=O)C5)C4)n2)c1F (racemic) [Compound 152, Rac-N-(3-{2-tert-butyl-5-[2-({2-[2-(2-{2-[(3R)-2,6-dioxopiperidin-3-yl]-1,3-dioxo-2,3-dihydro-1H-isoindol-5-yl}-2,7-diazaspiro[3.5]nonan-7-yl)acetyl]-2-azaspiro[3.3]heptan-6-yl}amino)pyrimidin-4-yl]-1,3-thiazol-4-yl}-2-fluorophenyl)propane-1-sulfonamide]
– | – | – | – | – | – | – | – | > 500 | < 30 | > 500 | < 30 | 10 to 50 | 30 to 70 | > 500 | < 30 | CCCS(=O)(=O)Nc1cccc(-c2nc(C3CCC4(CC3)CCN(CC[C@H]3CCN(c5ccc(C6CCC(=O)NC6=O)cn5)C3)CC4)sc2-c2ccnc(N)n2)c1F (mixture of isomers) [Compound 259, N-{3-[5-(2-aminopyrimidin-4-yl)-2-(3-{2-[(3S)-1-{5-[(3RS)-2,6-dioxopiperidin-3-yl]pyridin-2-yl}pyrrolidin-3-yl]ethyl}-3-azaspiro[5.5]undecan-9-yl)-1,3-thiazol-4-yl]-2-fluorophenyl}propane-1-sulfonamide]
– | – | – | – | – | – | – | – | 10 to 50 | 30 to 70 | < 10 | 30 to 70 | 10 to 50 | > 70 | 10 to 50 | 30 to 70 | CCCS(=O)(=O)Nc1cccc(-c2cn(-c3ccc(N4CCC(CN5CCN(c6ccc(C7CCC(=O)NC7=O)cc6)CC5)CC4)cc3)nc2-c2ccncc2)c1F (racemic) [Compound 381, Rac-(R)—N-(3-(1-(4-(4-((4-(4-(2,6-dioxopiperidin-3-yl)phenyl)piperazin-1-yl)methyl)piperidin-1-yl)phenyl)-3-(pyridin-4-yl)-1H-pyrazol-4-yl)-2-fluorophenyl)propane-1-sulfonamide]
> 500 | 30 to 70 | < 10 | 30 to 70 | < 10 | > 70 | < 10 | 30 to 70 | – | – | – | – | – | – | – | – | CCCS(=O)(=O)Nc1cccc(-c2nc(C(C)(C)C)sc2-c2ccnc(Nc3cccc(OC4CCN(C(=O)[C@@H]5CCN(c6ccc(C7CCC(=O)NC7=O)cn6)C5)CC4)c3)n2)c1F (mixture of isomers) [Compound 94, N-{3-[2-tert-butyl-5-(2-{[3-({1-[(3R)-1-{5-[(3RS)-2,6-dioxopiperidin-3-yl]pyridin-2-yl}pyrrolidine-3-carbonyl]piperidin-4-yl}oxy)phenyl]amino}pyrimidin-4-yl)-1,3-thiazol-4-yl]-2-fluorophenyl}propane-1-sulfonamide]
